In paper PMC5291402 (The Plant Pathology Journal, 2017):
Converted amounts (≈) assume the structure as drawn.

What was measured:
[1] = test system: Xanthomonas citri subsp. citri 19-18 (XscW1), WT; test: Streptomycin MIC/MBC of the strains used; format: cell-based
wild type strains of Xcc = test: Streptomycin MIC, wild type strains; format: cell-based, Xanthomonas citri subsp. citri; details: Xanthomonas citri, read-out: MICs of wild type strains of Xcc
[2] = test system: Xanthomonas citri subsp. citri 27-13 (XcsM8), rpsL41 & strB double mutant; format: cell-based
[3] = test system: Xanthomonas citri subsp. citri 57-2 (XcsM6), strB located in Tn5393; test: Streptomycin MIC/MBC of the strains used; format: cell-based
[4] = test system: Xanthomonas citri subsp. citri 8-4 (XcsM5), rpsL41 (K42R in S12); format: cell-based
wild type strain XccW2 = format: in vivo, Xanthomonas citri subsp. citri
SR strain XccM8 = format: in vivo, Xanthomonas citri subsp. citri; details: 50 μg/ml or 100 μg/ml, SR mutant XccM8, citrus leaves
[5] = test system: Xanthomonas citri subsp. citri 10-5 (XscW2), WT; test: Streptomycin MIC/MBC of the strains used; format: cell-based

[H]/N=C(/N)N[C@H]1[C@H](O)[C@@H](O)[C@H](O[C@@H]2O[C@@H](C)[C@](O)(C=O)[C@H]2O[C@@H]2O[C@@H](CO)[C@H](O)[C@@H](O)[C@@H]2NC)[C@@H](N/C(N)=N\[H])[C@@H]1O [Streptomycin]
MIC [1]: 1 µg/mL | MIC (wild type strains of Xcc): 1 to 2 µg/mL (≈ 1.72 to 3.44 µM) | MIC [2]: 3,000 μg/ml | MBC [3]: 3670 µg/mL | MIC [3]: 3330 µg/mL | MIC [4]: 6,000 μg/ml | delay of the first pustule formation (wild type strain XccW2; 50 μg/ml, wild type Xcc, citrus leaves (data not shown)): about 1 day | days to form the first yellowish halo around the pustule (index 2) (wild type strain XccW2; 100 μg/ml, co-infiltrated with wild type Xcc into citrus leaves): 10 days | suppression of symptom development (wild type strain XccW2; wild type Xcc, citrus leaves, monitored 17 days after inoculation): suppressed up to 17 days | suppression of disease progress (SR strain XccM8): did not suppress the disease progress | MIC [5]: 2 µg/mL
